Laboratory results taken from PMC11237035, “Glutathione determines chronic myeloid leukemia vulnerability to an inhibitor of CMPK and TMPK” (Communications Biology, 2024).
Several values for one entry are separate records, joined by “and”; a condition that tells them apart may be missing. Equal values may be shown once. Blank lines part the entries; values can stand above or below the molecule they belong to.

How the values were obtained:
[1] = test system: T315I-Bcr-Abl-32D cells; assay: dTTP/dCTP pools by RCA-qPCR in T315I-Bcr-Abl-32D cells; assay type: cell-based, mouse; conditions: T315I; replicates
Procedure: The methanol extracts were centrifuged
For chloroform extraction, same volume of
attomol of the annealed template-primer.
The RCA products were determined by
The thiophenol compound 3 was
(98.5%) after silica gel chromatography.

[2] = test system: untransformed 32D cells; assay: CCK-8 cell viability assay, untransformed 32D cells; assay type: cell-based, mouse; conditions: for viability (0 = 100): Untransformed, single replicates
Procedure: After 72 h, viability assays were performed.
3 independent experiments. Asterisks denote ***p<0.001 from non-paired two-tailed

[3] = test system: T315I-Bcr-Abl-32D cells; assay: CCK-8 cell viability assay, T315I-Bcr-Abl-32D cells; assay type: cell-based, mouse; conditions: T315I-Bcr-Abl; for viability (0 = 100): single replicates
[4] = test system: T315I-Bcr-Abl-32D cells; assay: GSH/GSSG-Glo measurement, T315I-Bcr-Abl-32D cells; assay type: cell-based, mouse; conditions: T315I-Bcr-Abl cells, UK-5099 25 μM, 16 h
Source text: (§1) The GSH/GSSG-Glo™ Assay Kit (Promega, V6611) was used for luminescent-based measurement of cellular GSH and GSSG by Tecan Spark 10 microplate reader.

[5] = test system: untransformed 32D cells; assay: GSH/GSSG-Glo measurement, untransformed 32D cells; assay type: cell-based, mouse; conditions: UK-5099 25 μM, 16 h
Source text: as §1

[6] = test system: K562 cells; assay: GSH/GSSG-Glo measurement, K562 cells; assay type: cell-based, human
Procedure: (§2) After 3 days, cells were analyzed by viability assays.
as §1

[7] = test system: TCCS cells; assay: GSH/GSSG-Glo measurement, TCCS cells; assay type: cell-based, human
Procedure: as §2, §1

[8] = test system: KOPM28 cells; assay: GSH/GSSG-Glo measurement, KOPM28 cells; assay type: cell-based, human
Procedure: as §2, §1

[9] = test system: T315I-Bcr-Abl-32D cells; assay: DNA fiber assay (replication speed), T315I-Bcr-Abl-32D cells; assay type: cell-based, mouse; conditions: T315I-Bcr-Abl cells, UK-5099 25 μM, 16 h
Procedure: (§3) The workflow of DNA fiber labeling (Right). The representative labeled fibers are shown below. Replication speed in kb/min was calculated by the measured length of IdU (green) linking to CldU (red) in μm with a conversion factor of 0.34 μm/kb divided by the duration of the labeling pulse (Scale bar = 10 μm). The gray triangle indicates the boundary between red fluorescence and green fluorescence. c The measurement of intracellular ROS by the fluorescence intensity of CellROX Green staining using flow cytometric analysis. Data are presented as mean intensity relative to untransformed 32D cells. d, e The measurement of GSSG and GSH. […] Schematic illustration of the metabolic path U-^13C glutamine incorporation into the GSH (left). Gray and white circles indicate ^13C-label, and unlabeled ^12C, respectively. The traced isotopologue abundance of GSH is shown (right).
(§4) The DNA fiber assay was performed as described previously. Briefly, cells were sequentially treated with the medium containing 25 μM of CldU (Sigma-Aldrich, C6891) and then 250 μM of IdU (Sigma-Aldrich, I7125) for 20 min. After washing, cells were suspended in PBS (1000 cells/ μL). 2 μL of cell suspension was spotted on slides. […] The lengths of red- and green-labeled fibers were determined by FluoView3.0 software (Olympus).

[10] = test system: untransformed 32D cells; assay: DNA fiber assay (replication speed), untransformed 32D cells; assay type: cell-based, mouse; conditions: UK-5099 25 μM, 16 h
Procedure: as §3, §4

[11] = test system: T315I-Bcr-Abl-32D cells in C3H/HeNCrNarl mice; conditions: T315I-Bcr-Abl-32D mice, UK-5099 10 mg/kg i.p. daily for 14 days alone, vs vehicle
[12] = target: T1, hTMPK (Homo sapiens, UniProt P23919); assay: biochemical
T1 sequence (P23919 1-212): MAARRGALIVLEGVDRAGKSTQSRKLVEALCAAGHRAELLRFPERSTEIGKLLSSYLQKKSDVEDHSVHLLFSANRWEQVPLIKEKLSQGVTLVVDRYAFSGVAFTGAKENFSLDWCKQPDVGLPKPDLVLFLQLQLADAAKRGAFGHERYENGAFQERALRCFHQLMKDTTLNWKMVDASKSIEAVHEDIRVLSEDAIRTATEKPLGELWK

[13] = target: T2, hCMPK (Homo sapiens, UniProt P30085); assay: biochemical
T2 sequence (P30085 1-196): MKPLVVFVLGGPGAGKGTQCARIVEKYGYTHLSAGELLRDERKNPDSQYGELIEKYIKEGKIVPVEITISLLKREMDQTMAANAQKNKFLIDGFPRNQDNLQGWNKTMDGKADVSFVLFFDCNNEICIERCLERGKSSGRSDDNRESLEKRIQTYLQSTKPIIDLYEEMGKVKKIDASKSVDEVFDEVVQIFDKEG

[14] = test system: WT-Bcr-Abl-32D cells; assay: CCK-8 cell viability assay, WT-Bcr-Abl-32D cells; assay type: cell-based, mouse; conditions: WT-Bcr-Abl, single replicates
[15] = test system: untransformed 32D cells; assay: Western blot of tyrosine phosphorylation, untransformed 32D cells; assay type: cell-based, mouse; conditions: 32D progenitor cells, 2 μM, 4 h, pY99 Western blot
[16] = test system: WT-Bcr-Abl-32D cells; assay: Western blot of tyrosine phosphorylation and Bcr-Abl downstream signaling, WT-Bcr-Abl-32D cells; assay type: cell-based, mouse
Source text: (§5) Supplementary Figure 1. Bcr-Abl-activated downstream signaling in WT- and
(§6) The comparison of Bcr-Abl downstream signaling (Akt, mTorC1, and Stat5) in WT- […]

[17] = test system: T315I-Bcr-Abl-32D cells; assay: Western blot of tyrosine phosphorylation and Bcr-Abl downstream signaling, T315I-Bcr-Abl-32D cells; assay type: cell-based, mouse
Source text: as §5, §6

SMILES: N#C/C(=C\c1cn(-c2ccccc2)c2ccccc12)C(=O)O [UK-5099]
Figure 6d, dCTP relative to NT (=100) [1]: 73.8406 and 210.17 and 73.3898
Figure 6d, dTTP relative to NT (=100) [1]: 74.5764 and 216.09 and 77.7298
Figure 6c, viability relative to NT (=100) ([2]; 32D, UK-5099 alone (JMF4073 0), replicates): 104.358 and 105.293 and 83.4613
Figure 6c, viability relative to NT (=100) ([3]; UK-5099 alone (JMF4073 0), replicates): 99.9363 and 88.5988 and 102.123
GSH level [4]: reduce GSH levels
effect on GSH reduction, compared with T315I-Bcr-Abl cells [5]: less
GSH% relative to K562 (Figure 7e) ([6]; K562, UK-5099 treated, K562 vehicle = 100, per replicate): 52.9657% and 35.7607% and 66.83%
cellular level of GSH ([6]; K562 cells, UK-5099 50 μM, 16 h): bring down
GSH level ([7]; TCCS cells, UK-5099 50 μM, 16 h): unchanged
GSH% relative to K562 (Figure 7e) ([7]; TCCS, UK-5099 treated, K562 vehicle = 100, per replicate): 96.7924% and 63.772% and 96.1621%
GSH% relative to K562 (Figure 7e) ([8]; KOPM28, UK-5099 treated, K562 vehicle = 100, per replicate): 180.441% and 154.066% and 117.536%
GSH level ([8]; KOPM28 cells, UK-5099 50 μM, 16 h): unchanged
replication fork progression [9]: slow replication fork progression
effect on replication stress, compared with T315I-Bcr-Abl cells [10]: less
survival of leukemia mice [11]: not affected

IC50 [12]: 720 nM
IC50 [13]: 1800 nM
SMILES: CCOC(=O)N1CCN(C(=O)Cn2sc3nc(C)cc(C)c3c2=O)CC1 [YMU1]

SMILES: Nc1ccn([C@@H]2O[C@H](CO)[C@@H](O)[C@@H]2O)c(=O)n1 [ara-C, cytosine arabinoside]
viability (0 = 100) ([2]; AraC 0.25 μM): 80.5922 and 25.4877 and 20.7295
viability (0 = 100) ([2]; AraC 0.5 μM): 32.0177 and 10.1455 and 8.811
viability (0 = 100) ([2]; AraC 1 μM): 12.3749 and 4.297 and 2.7153
viability (0 = 100) ([2]; AraC 2 μM): 4.929 and -0.8077 and -0.4748
sensitivity compared among WT-, T315I-Bcr-Abl-32D and untransformed 32D progenitor cells ([2]; viability assays): similar
viability (0 = 100) ([14]; AraC 0.25 μM): 45.2109 and 73.8346 and 101.332
viability (0 = 100) ([14]; AraC 0.5 μM): 24.4529 and 41.8769 and 43.1257
viability (0 = 100) ([14]; AraC 1 μM): 7.238 and 10.5227 and 12.1803
viability (0 = 100) ([14]; AraC 2 μM): 1.535 and 1.964 and 2.059
viability (0 = 100) ([3]; AraC 0.25 μM): 91.0147 and 59.6875 and 56.2982
viability (0 = 100) ([3]; AraC 0.5 μM): 23.443 and 24.5051 and 17.9316
viability (0 = 100) ([3]; AraC 1 μM): 4.479 and 5.149 and 3.231
viability (0 = 100) ([3]; AraC 2 μM): 0.8258 and 1.3128 and 0.8788

SMILES: Cc1ccc(C(=O)Nc2ccc(CN3CCN(C)CC3)c(C(F)(F)F)c2)cc1C#Cc1cnc2cccnn12 [ponatinib]
basal level of tyrosine phosphorylation [15]: also reduced
Bcr-Abl downstream signals (pAkt-S473, pS6K-T389, pStat5-Y694) [16]: abolished these signals
level of overall tyrosine phosphorylation [16]: reduced
Bcr-Abl downstream signals (pAkt-S473, pS6K-T389, pStat5-Y694) [17]: abolished these signals
level of overall tyrosine phosphorylation [17]: reduced
